# Literature values, collected in US20060100282A1, “Novel diaminopropane-based metal chelators as antiviral agents” (Bioflexis, LLC, priority 2004, published 2006).
# What was measured:
# HIV-1 integrase (IN) [1] = target: T1, HIV-1 integrase (IN) (Human immunodeficiency virus type 1 group M subtype B, UniProt P12497); conditions: result in words
# T1 construct: HIV-1 recombinant IN (HIV-1NL 4-3 Integrase, NIH AIDS Reagent program Catalog No: 2959); purchased NIH AIDS Reagent program 2959
# HIV-1 integrase (IN) [2] = target: T1, HIV-1 integrase (IN); conditions: result in words; remark: listed apart in the source
SMILES,inhibition of strand transfer reaction (HIV-1 integrase (IN) [1]),inhibition of 3′ processing (HIV-1 integrase (IN) [2])
O=C(O)C(=O)CC(=O)c1cc(OCc2ccccc2)cc(OCc2ccccc2)c1 [Inhibitor 6],inhibit strand transfer reaction,do not inhibit 3′ processing
O=C(O)C(=O)CC(=O)c1cccn1Cc1ccc(F)cc1 [Inhibitor 8],inhibit strand transfer reaction,do not inhibit 3′ processing
